Experimental data as given in patent US20200031825A1, “HETEROAROMATIC-FUSED IMIDAZOLYL AMIDES, COMPOSITIONS AND USES THEREOF AS STING AGONISTS” (Trillium Therapeutics Inc., priority 2018, published 2020).
Where two headings read alike, the source gives them in different places.

Assays:
Format in all cases: cell-based
hSTING-wt = hSTING-wt (Homo sapiens, UniProt Q86WV6); experiment: Cellular Functional Assay I: ISRE-SEAP reporter in HEK-293T-Dual Null cells transfected with hSTING-wt; settings: HEK-293T-Dual Null, hSTING-wt
Chain of hSTING-wt (Q86WV6 whole entry H232R): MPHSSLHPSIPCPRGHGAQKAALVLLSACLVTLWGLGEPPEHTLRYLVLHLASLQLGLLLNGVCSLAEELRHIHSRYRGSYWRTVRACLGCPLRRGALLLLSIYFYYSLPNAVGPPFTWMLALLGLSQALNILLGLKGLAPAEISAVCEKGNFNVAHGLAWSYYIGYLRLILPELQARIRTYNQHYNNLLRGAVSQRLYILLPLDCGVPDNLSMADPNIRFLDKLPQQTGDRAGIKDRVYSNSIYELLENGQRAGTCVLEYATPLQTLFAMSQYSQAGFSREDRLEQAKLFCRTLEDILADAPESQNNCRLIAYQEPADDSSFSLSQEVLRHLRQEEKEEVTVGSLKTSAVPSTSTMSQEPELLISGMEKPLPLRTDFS

hSTING-Q = molecular target: T1, hSTING-Q (Homo sapiens, UniProt Q86WV6, R293Q); experiment: Cellular Functional Assay I: ISRE-SEAP reporter, hSTING-Q allele
T1 construct: expressed in transfected cells
T1 sequence (Q86WV6 whole entry R293Q): as the sequence (Q86WV6 whole entry H232R) above, with R232H, R293Q counted along it

hSTING-AQ = molecular target: T2, hSTING-AQ (Homo sapiens, UniProt Q86WV6, G230A/R293Q); experiment: Cellular Functional Assay I: ISRE-SEAP reporter, hSTING-AQ allele
T2 construct: expressed in transfected cells
T2 sequence (Q86WV6 whole entry G230A/H232R/R293Q): as the sequence (Q86WV6 whole entry H232R) above, with G230A, R293Q counted along it

hSTING-HAQ = hSTING-HAQ (Homo sapiens, UniProt Q86WV6, G230A/H232R/R293Q/R71H); experiment: Cellular Functional Assay I: ISRE-SEAP reporter in HEK-293T-Dual Null cells transfected with hSTING-HAQ; settings: HEK-293T-Dual Null, hSTING-HAQ
Chain of hSTING-HAQ (Q86WV6 whole entry R71H/G230A/H232R/R293Q): as the sequence (Q86WV6 whole entry H232R) above, with R71H, G230A, R293Q counted along it

human PBMCs = experiment: Cellular Functional Assay III: IFN-β production from human PBMCs; settings: PBMC
Method: Frozen human PBMCs (BioIVT Inc.) were thawed first in a 37° C. water bath, then washed with RPMI/10% FBS/2 mM EDTA medium twice before establishing a viable cell count by Trypan Blue. The final cell density for each donor was 5×10^6 cells per well with RPMI/10% FBS medium in a 96 well u-bottom plate.
Human PBMCs were then incubated with testing compounds with indicated concentrations and control for 4 hours at 37° C. in cell culture incubator. After incubation, supernatant was collected and used for measuring induced cytokine level by cytometric bead array analysis.

mSTING-wt = molecular target: T3, mSTING-wt (Mus musculus, UniProt Q3TBT3); experiment: Cellular Functional Assay I: ISRE-SEAP reporter in HEK-293T-Dual Null cells transfected with mouse STING; settings: SEAP reporter, HEK-293T-Dual Null, mSTING-wt; read-out: EC50 mSTING-wt
T3 sequence (Q3TBT3 1-378): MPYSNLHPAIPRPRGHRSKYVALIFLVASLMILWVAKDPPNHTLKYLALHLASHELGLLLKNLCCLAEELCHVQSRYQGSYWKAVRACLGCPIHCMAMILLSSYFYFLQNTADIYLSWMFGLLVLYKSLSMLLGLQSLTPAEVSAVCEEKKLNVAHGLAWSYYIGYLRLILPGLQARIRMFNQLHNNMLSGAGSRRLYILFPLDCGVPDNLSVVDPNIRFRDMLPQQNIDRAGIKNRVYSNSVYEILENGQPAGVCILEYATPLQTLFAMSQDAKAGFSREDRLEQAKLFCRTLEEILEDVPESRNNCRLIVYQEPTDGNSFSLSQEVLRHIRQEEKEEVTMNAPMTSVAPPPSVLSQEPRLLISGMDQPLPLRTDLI

hSTING-H232 = hSTING-H232 (Homo sapiens, UniProt Q86WV6); experiment: Cellular Functional Assay I: ISRE-SEAP reporter in HEK-293T-Dual Null cells transfected with hSTING-H232; settings: HEK-293T-Dual Null, hSTING-H232
Chain of hSTING-H232 (Q86WV6 whole entry): as the sequence (Q86WV6 whole entry H232R) above, with R232H counted along it

[1] = system: mouse dendritic cells (m-DCs); experiment: Cellular Functional Assay II: secreted IFN-β from mouse dendritic cells; settings: m-DC
Method: (§1) Activation of STING in primary cells was determined by measuring levels of secreted IFN-β from human monocyte-derived macrophages (h-MDMs)/dendritic cells (h-DCs) and/or mouse dendritic cells (m-DCs) after treatment with A.
(§2) Human CD14+ cells were first isolated from human peripheral blood mononuclear cells (PBMCs) with Stemcell Easysep Monocyte Isolation™ kit. Human CD14+ cells were kept in conditioned media for 7-12 days to generate h-MDMs and h-DCs before use. After harvesting from C57BL/6 mouse femurs, bone marrow cells were culture in conditioned media for 7 days to generate m-DCs before use.
(§3) The Culture conditions for the various types of cells whereas noted in Table 2:
(§4) 0.5×10^6 cells in 50 ul buffer (50 mM HEPES, pH7.0; 100 mM KCl; 3 mM MgCl2, 0.1 mM DTT; 85 mM Sucrose; 0.2% BSA, 1 mM ATP) in 96-well round bottom plate. Compound (formulated in DMSO) or DMSO (control) were added into each well and the plate incubate at 37° C. for 30 minutes. Cells were washed twice with 100 uL of fresh media and incubated at 37° C. for an additional 6 hours. After 6 hour of incubation, the supernatant was collected and a Cytometry Bead Assay™ (CBA, BioLegend) was used to measure […] levels.

[2] = system: human dendritic cells (h-DCs); experiment: Cellular Functional Assay II: secreted IFN-β from human dendritic cells; settings: h-DC
Method: as §1, §2, §3, §4

[3] = system: human monocyte-derived macrophages (h-MDMs); experiment: Cellular Functional Assay II: secreted IFN-β from human monocyte-derived macrophages; settings: h-MDM
Method: as §1, §2, §3, §4

[4] = Donor 1, 4 hours, read-out: Potency (IFN-β production) in Human PBMCs (EC50s) Donor 1
[5] = Donor 2, 4 hours, read-out: Potency (IFN-β production) in Human PBMCs (EC50s) Donor 2
[6] = Donor 3, 4 hours, read-out: Potency (IFN-β production) in Human PBMCs (EC50s) Donor 3
[7] = Donor 4, 4 hours, read-out: Potency (IFN-β production) in Human PBMCs (EC50s) Donor 4

Row | Compound | EC50 (hSTING-wt) | EC50 (hSTING-Q) | EC50 (hSTING-AQ) | EC50 (hSTING-HAQ) | EC50 (human PBMCs; [4]) | EC50 (human PBMCs; [5]) | EC50 (human PBMCs; [6]) | EC50 (human PBMCs; [7]) | EC50 (mSTING-wt) | EC50 (hSTING-H232) | IFN-β level ([1]; 0.1 uM) | IFN-β level ([1]; 1 uM) | IFN-β level ([1]; 10 uM) | IFN-β level ([2]; 0.1 uM) | IFN-β level ([2]; 10 uM) | IFN-β level ([3]; 0.1 uM) | IFN-β level ([3]; 1 uM) | IFN-β level ([3]; 10 uM)
1 | CCn1nc(C)cc1C(=O)Nc1nc2cc(C(N)=O)cnc2n1C/C=C/Cn1c(NC(=O)c2cc(C)nn2CC)nc2cc(C(N)=O)cc(OCCCN3CCC[C@H]3COC(F)F)c21 [Compound Y, 3-[(E)-4-[5-carbamoyl-7-[3-[(2S)-2-(difluoromethoxymethyl)pyrrolidin-1-yl]propoxy]-2-[(2-ethyl-5-methyl-pyrazole-3-carbonyl)amino]benzimidazol-1-yl]but-2-enyl]-2-[(2-ethyl-5-methyl-pyrazole-3-carbonyl)amino]imidazo[4,5-b]pyridine-6-carboxamide] | < 1 nM | 1 to 500 nM | 1 to 500 nM | 1 to 500 nM | < 100 nM | < 100 nM | < 100 nM | < 100 nM | 1 to 500 nM | < 1 nM |  |  |  |  |  |  |  | 
2 | CCn1nc(C)cc1C(=O)Nc1nc2cc(C(N)=O)cnc2n1C/C=C/Cn1c(NC(=O)c2cc(C)nn2CC)nc2cc(C(N)=O)cc(OC)c21 [Compound A, 3-[(E)-4-[5-carbamoyl-2-[(2-ethyl-5-methyl-pyrazole-3-carbonyl)amino]-7-methoxy-benzimidazol-1-yl]but-2-enyl]-2-[(2-ethyl-5-methyl-pyrazole-3-carbonyl)amino]imidazo[4,5-b]pyridine-6-carboxamide] | < 1 nM | 1 to 500 nM | 1 to 500 nM | 1 to 500 nM |  |  |  |  | < 1 nM | < 1 nM | >100 pg/mL | >10,000 pg/ml | >50,000 pg/ml | >5,000 pg/ml | >15,000 pg/ml | >1,000 pg/ml | >1,000 pg/ml | >1,000 pg/ml
3 | Nc1nc2c(ncn2[C@@H]2O[C@@H]3COP(=O)(O)O[C@H]4[C@@H](O)[C@H](n5cnc6c(N)ncnc65)O[C@@H]4COP(=O)(O)O[C@@H]2[C@@H]3O)c(=O)[nH]1 [2′3-cGAMP, reference compound] |  |  |  |  |  |  |  |  |  |  | <300 pg/mL | <1,000 pg/ml | <3,000 pg/ml | <10 pg/mL | <50 pg/mL | <10 pg/mL | <20 pg/mL | <50 pg/mL
4 | CCn1nc(C)cc1C(=O)Nc1nc2cc(C(N)=O)cnc2n1C/C=C/Cn1c(NC(=O)c2cc(C)nn2CC)nc2cc(C(N)=O)cc(OCCCN3CCN(C(C)=O)CC3)c21 [Compound X, 3-[(E)-4-[7-[3-(4-acetylpiperazin-1-yl)propoxy]-5-carbamoyl-2-[(2-ethyl-5-methyl-pyrazole-3-carbonyl)amino]benzimidazol-1-yl]but-2-enyl]-2-[(2-ethyl-5-methyl-pyrazole-3-carbonyl)amino]imidazo[4,5-b]pyridine-6-carboxamide] | 1 to 500 nM | 1 to 500 nM | 1 to 500 nM | 1 to 500 nM | 100 to 500 nM | 100 to 500 nM | 100 to 500 nM | 100 to 500 nM | 1 to 500 nM | 1 to 500 nM |  |  |  |  |  |  |  | 
5 | CCn1nc(C)cc1C(=O)Nc1nc2cc(C(N)=O)cnc2n1C/C=C/Cn1c(NC(=O)c2cc(C)nn2CC)nc2cc(C(N)=O)cc(OCCCN3CCOCC3)c21 [Compound T, 3-[(E)-4-[5-carbamoyl-2-[(2-ethyl-5-methyl-pyrazole-3-carbonyl)amino]-7-(3-morpholinopropoxy)benzimidazol-1-yl]but-2-enyl]-2-[(2-ethyl-5-methyl-pyrazole-3-carbonyl)amino]imidazo[4,5-b]pyridine-6-carboxamide] | 1 to 500 nM | 1 to 500 nM | 1 to 500 nM | 1 to 500 nM | 100 to 500 nM | < 100 nM | < 100 nM | 100 to 500 nM | 1 to 500 nM | 1 to 500 nM |  |  |  |  |  |  |  | 
6 | CCn1nc(C)cc1C(=O)Nc1nc2cc(C(N)=O)cnc2n1C/C=C/Cn1c(NC(=O)c2cc(C)nn2CC)nc2cc(C(N)=O)cc(OCCCNCCOC(F)F)c21 [Compound U, 3-[(E)-4-[5-carbamoyl-7-[3-[2-(difluoromethoxy)ethylamino]propoxy]-2-[(2-ethyl-5-methyl-pyrazole-3-carbonyl)amino]benzimidazol-1-yl]but-2-enyl]-2-[(2-ethyl-5-methyl-pyrazole-3-carbonyl)amino]imidazo[4,5-b]pyridine-6-carboxamide] | 1 to 500 nM | 1 to 500 nM | 1 to 500 nM | 1 to 500 nM |  |  |  |  | 1 to 500 nM | 1 to 500 nM |  |  |  |  |  |  |  | 
7 | [2H]C1([2H])OC([2H])([2H])C([2H])([2H])N(CCCOc2cc(C(N)=O)cc3nc(NC(=O)c4cc(C)nn4CC)n(C/C=C/Cn4c(NC(=O)c5cc(C)nn5CC)nc5cc(C(N)=O)cnc54)c23)C1([2H])[2H] [Compound W, 3-[(E)-4-[5-carbamoyl-2-[(2-ethyl-5-methyl-pyrazole-3-carbonyl)amino]-7-[3-(2,2,3,3,5,5,6,6-octadeuteriomorpholin-4-yl)propoxy]benzimidazol-1-yl]but-2-enyl]-2-[(2-ethyl-5-methyl-pyrazole-3-carbonyl)amino]imidazo[4,5-b]pyridine-6-carboxamide] | 1 to 500 nM | 1 to 500 nM | 1 to 500 nM | 1 to 500 nM | 100 to 500 nM | 100 to 500 nM | < 100 nM | 100 to 500 nM | 1 to 500 nM | 1 to 500 nM |  |  |  |  |  |  |  | 
